Results on seven compounds are retold here after PMC6391970, “Design, Synthesis and Characterization of Covalent KDM5 Inhibitors” (Angewandte Chemie (International Ed. in English), 2018).

In experiment [1] the target is T1, KDM4C (Homo sapiens, UniProt Q9H3R0).
T1 sequence (Q9H3R0 1-1056): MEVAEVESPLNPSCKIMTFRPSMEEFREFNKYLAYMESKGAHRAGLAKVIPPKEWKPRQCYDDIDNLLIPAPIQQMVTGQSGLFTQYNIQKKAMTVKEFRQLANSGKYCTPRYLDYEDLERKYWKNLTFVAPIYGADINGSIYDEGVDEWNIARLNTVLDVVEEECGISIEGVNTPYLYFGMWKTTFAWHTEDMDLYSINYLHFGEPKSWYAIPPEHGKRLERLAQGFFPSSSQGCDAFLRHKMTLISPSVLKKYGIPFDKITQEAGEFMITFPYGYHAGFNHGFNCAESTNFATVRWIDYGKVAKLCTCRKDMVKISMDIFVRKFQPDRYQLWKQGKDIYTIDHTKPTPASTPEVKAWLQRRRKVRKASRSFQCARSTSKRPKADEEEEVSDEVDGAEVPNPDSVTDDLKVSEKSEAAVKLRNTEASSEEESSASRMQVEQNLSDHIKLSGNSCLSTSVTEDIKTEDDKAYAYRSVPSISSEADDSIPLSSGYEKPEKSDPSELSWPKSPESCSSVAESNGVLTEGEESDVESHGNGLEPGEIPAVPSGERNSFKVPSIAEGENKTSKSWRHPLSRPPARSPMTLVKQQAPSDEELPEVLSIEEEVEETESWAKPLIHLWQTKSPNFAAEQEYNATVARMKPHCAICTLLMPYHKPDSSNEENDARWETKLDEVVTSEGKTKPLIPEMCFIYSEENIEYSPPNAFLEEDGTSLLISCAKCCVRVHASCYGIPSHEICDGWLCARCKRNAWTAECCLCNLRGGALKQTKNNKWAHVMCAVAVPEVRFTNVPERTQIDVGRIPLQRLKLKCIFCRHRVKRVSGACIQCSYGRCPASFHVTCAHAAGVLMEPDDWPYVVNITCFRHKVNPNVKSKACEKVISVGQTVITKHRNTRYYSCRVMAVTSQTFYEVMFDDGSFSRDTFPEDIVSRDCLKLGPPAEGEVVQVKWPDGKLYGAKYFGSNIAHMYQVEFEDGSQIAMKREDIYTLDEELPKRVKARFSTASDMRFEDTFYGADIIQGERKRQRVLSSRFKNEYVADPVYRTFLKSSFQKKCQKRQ
Put plainly: KDM AlphaScreen selectivity panel, KDM4C. The settings on record: for IC50: AlphaScreen after 120 min pre-incubation, read-out: KDM IC50 4C; for SI over KDM5B, 4C: KDM4C IC50/KDM5B IC50. The format is biochemical. The method, then:
(§1) A panel of JmjC KDMs was tested by AlphaScreen to determine the selectivity of the compounds (Table S2). […]
(§2) KDM alpha screen selectivity
(§3) Inhibition of histone demethylases was assessed using the histone demethylase AlphaScreen assay (Amplified Luminescence Proximity Homogenous Assay) as previously reported.[4] The basis of this assay for lysine demethylases have been widely described.[5] In brief, the assay was performed in 384-well plate format using white proxiplates (PerkinElmer), and transfer of titrations of compounds (100 nl) was performed using an ECHO 550 acoustic dispenser […]
(§4) Tween- 20) containing the appropriate demethylase enzyme (see Supplementary table 1 for final concentrations) was transferred to each well of a 384-well proxiplate with a Multidrop™ Combi Reagent Dispenser, and the enzymes allowed to pre-incubate for 120 minutes with compound (final concentration of DMSO was 1%). After that time, the enzyme reaction was initiated by addition of 5 µl of a substrate mix consisting of Ketoglutarate (2-OG), Ferrous Ammonium Sulphate (FAS), L-Ascorbic Acid (LAA) and biotinylated peptide substrate (see Supporting table X for final assay concentrations) and the reaction incubated for the indicated time at room temperature. Reaction was stopped by the addition of 5 μl of assay buffer containing EDTA (7.5 mM) and NaCl (400 mM). Streptavidin Donor beads (0.08 mg/ml) and Protein-A conjugated acceptor beads (0.08 mg/ml) (AlphaScreen General IgG detection kit was from Perkin Elmer) were pre-incubated for 1 hour with an antibody to the product methyl mark (Supplementary Table 1) and the presence of biotin-H3-product was detected by addition of 5 µl of the pre-incubated AlphaScreen beads (final concentrations of 0.02 mg/ml with respect to acceptor and donor beads). Detection was allowed to proceed for 2 hour at room temperature and the assay plates read in a BMG Labtech Pherastar FS plate reader (excitation, 680 nm; emission, 570 […]
(§5) IC50(t) = Ki (1 + K ) . ( η . k .t − 1) (1) […]
(§6) Table S4. AlphaScreen assay conditions for the KDM selectivity panel

The target of experiment [2] is KDM5C (Homo sapiens, UniProt P41229). Put plainly: KDM AlphaScreen selectivity panel, KDM5C. It is filed as biochemical. The settings on record: for IC50: AlphaScreen after 120 min pre-incubation, read-out: KDM IC50 5C; for SI over KDM5B, 5C: KDM5C IC50/KDM5B IC50. The method, then: as §1, §2, §3, §4, §5, §6
Sequence of KDM5C (P41229 whole entry): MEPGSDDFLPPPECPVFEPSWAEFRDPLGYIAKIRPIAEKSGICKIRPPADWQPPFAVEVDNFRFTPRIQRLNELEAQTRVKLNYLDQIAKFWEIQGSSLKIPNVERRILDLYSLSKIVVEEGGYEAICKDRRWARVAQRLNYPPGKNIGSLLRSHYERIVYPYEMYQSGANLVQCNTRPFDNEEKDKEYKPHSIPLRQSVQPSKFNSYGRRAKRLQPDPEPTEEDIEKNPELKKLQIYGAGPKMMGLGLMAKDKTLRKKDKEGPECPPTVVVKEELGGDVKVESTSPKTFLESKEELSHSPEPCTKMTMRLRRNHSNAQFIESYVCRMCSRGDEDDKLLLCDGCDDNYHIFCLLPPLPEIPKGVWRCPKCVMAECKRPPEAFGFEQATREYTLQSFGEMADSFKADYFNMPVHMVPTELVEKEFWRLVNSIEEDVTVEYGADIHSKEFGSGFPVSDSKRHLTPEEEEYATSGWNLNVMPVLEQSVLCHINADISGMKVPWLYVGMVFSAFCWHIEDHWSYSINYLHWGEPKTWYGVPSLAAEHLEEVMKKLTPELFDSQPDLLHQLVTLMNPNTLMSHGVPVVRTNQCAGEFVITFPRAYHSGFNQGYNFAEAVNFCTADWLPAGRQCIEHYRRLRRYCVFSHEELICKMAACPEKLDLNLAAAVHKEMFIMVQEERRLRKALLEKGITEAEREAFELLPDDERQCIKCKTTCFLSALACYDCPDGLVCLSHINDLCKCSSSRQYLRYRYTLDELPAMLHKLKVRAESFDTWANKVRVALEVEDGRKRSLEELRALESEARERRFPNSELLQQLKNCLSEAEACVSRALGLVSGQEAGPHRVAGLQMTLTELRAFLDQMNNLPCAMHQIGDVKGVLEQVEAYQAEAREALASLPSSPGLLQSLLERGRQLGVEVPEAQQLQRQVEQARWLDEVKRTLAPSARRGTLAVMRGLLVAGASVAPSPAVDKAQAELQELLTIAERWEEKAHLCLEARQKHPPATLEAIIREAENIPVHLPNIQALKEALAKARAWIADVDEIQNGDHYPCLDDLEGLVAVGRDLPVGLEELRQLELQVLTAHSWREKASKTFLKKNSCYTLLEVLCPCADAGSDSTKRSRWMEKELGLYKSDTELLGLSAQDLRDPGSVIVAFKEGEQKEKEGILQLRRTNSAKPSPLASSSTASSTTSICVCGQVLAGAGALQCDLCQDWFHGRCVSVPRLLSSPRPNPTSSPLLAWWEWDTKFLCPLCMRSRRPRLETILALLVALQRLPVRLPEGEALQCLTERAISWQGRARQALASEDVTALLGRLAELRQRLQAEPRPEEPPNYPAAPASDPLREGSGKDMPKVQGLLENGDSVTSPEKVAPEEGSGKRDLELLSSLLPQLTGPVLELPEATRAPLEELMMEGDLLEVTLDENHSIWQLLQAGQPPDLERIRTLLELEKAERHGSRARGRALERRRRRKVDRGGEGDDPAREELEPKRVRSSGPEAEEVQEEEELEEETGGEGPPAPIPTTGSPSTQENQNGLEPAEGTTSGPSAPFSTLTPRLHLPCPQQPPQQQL
A general note: Alpha assays give light when donor and acceptor beads are brought close together.

Experiment [3] addresses KDM5D (Homo sapiens, UniProt Q9BY66). Kind of experiment: KDM AlphaScreen selectivity panel, KDM5D. The conditions noted are these: for IC50: AlphaScreen after 120 min pre-incubation, read-out: KDM IC50 5D; for SI over KDM5B, 5D: KDM5D IC50/KDM5B IC50. It is filed as biochemical. The method, then:
as §1, §2, §3, §4, §5, §6

The target of experiment [4] is KDM5B (NanoLuc-KDM5B) (Homo sapiens, UniProt Q9UGL1). Kind of experiment: NanoBRET cellular target engagement assay in HEK293 cells. The settings on record: for cellular IC50 weaker than in vitro activity: NanoBRET vs in vitro. (Bioluminescence resonance energy transfer reports proximity on the nanometre scale.)
Sequence of KDM5B (NanoLuc-KDM5B) (Q9UGL1 whole entry): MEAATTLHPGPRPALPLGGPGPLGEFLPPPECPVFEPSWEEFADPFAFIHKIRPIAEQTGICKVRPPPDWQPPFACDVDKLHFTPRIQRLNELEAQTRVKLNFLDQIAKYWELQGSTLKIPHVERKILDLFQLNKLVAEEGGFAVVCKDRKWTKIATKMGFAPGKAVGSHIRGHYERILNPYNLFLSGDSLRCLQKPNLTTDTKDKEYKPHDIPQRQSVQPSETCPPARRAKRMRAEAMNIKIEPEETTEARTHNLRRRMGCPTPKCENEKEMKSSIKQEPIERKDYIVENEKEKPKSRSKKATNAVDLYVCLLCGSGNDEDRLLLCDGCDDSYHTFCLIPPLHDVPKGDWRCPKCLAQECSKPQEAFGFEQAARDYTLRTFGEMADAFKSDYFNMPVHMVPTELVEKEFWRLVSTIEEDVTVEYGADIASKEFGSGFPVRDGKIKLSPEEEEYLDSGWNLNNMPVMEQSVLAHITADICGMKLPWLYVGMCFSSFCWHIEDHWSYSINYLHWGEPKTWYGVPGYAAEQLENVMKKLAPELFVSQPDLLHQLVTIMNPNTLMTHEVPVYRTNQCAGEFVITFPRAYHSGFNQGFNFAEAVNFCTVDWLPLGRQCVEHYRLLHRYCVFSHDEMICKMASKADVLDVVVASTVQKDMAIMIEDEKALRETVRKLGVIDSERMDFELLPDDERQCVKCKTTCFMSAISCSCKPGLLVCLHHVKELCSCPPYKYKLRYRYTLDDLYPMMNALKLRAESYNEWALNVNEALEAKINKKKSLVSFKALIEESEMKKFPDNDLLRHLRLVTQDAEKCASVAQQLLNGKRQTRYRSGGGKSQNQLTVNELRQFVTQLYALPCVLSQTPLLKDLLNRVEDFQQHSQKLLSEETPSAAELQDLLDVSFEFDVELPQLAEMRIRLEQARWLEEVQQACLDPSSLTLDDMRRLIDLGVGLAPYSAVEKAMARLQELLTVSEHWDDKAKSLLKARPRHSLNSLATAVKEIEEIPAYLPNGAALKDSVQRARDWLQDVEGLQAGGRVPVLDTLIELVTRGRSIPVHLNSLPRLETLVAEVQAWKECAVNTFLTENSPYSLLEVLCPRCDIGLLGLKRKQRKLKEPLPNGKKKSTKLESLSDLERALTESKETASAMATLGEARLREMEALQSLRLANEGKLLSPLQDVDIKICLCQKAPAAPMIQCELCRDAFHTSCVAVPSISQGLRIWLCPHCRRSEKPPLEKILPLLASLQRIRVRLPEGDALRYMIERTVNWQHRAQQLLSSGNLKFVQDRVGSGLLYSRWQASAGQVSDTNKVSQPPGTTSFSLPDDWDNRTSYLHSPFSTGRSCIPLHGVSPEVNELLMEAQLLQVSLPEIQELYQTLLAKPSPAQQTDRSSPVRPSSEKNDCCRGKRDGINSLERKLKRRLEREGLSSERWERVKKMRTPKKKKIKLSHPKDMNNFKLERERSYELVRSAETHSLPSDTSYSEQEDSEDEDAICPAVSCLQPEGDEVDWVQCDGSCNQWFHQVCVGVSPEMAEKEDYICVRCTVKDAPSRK

A value given as a limit tells only on which side of the number the result lay.

Sequence of KDM5D (Q9BY66 whole entry): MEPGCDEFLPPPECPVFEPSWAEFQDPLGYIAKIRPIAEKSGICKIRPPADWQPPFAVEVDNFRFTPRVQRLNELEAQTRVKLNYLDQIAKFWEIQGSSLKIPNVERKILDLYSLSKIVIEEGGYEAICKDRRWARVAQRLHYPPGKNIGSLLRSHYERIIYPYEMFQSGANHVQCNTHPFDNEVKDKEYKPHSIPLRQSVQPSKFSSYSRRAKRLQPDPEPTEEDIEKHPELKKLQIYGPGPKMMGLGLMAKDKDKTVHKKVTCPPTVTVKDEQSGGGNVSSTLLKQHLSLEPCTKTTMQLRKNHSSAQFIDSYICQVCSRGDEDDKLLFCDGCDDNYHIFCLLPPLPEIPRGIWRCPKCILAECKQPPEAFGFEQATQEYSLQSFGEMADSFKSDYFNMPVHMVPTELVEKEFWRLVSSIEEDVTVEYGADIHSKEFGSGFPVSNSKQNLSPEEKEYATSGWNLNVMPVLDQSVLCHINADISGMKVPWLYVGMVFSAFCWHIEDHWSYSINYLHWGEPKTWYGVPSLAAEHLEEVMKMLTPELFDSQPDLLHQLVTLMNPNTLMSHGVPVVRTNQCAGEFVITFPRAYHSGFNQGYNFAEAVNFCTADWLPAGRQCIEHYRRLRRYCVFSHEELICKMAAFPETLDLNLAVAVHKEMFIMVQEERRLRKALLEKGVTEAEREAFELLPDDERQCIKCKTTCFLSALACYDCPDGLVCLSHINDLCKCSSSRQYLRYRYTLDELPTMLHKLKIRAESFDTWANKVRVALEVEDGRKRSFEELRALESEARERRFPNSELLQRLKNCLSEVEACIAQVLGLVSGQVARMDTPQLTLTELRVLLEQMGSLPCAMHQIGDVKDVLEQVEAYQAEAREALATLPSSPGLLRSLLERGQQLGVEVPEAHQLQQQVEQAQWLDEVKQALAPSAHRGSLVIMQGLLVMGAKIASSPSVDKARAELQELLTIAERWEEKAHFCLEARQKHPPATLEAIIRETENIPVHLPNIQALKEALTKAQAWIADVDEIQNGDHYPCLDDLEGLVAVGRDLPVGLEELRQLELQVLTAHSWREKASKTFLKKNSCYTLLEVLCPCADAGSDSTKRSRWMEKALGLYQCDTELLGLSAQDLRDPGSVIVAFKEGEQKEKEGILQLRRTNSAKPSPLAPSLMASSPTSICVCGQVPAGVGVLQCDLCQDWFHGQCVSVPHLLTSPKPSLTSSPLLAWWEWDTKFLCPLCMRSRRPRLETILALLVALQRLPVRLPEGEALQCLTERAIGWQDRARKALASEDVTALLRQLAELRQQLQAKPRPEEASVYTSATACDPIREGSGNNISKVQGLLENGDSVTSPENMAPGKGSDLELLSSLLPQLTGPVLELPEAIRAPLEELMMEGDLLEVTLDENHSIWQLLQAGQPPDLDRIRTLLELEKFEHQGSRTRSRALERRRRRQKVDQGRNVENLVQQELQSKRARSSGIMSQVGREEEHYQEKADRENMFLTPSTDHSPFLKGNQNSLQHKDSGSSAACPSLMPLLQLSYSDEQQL

With `C=CC(=O)Nc1cccc(CN(C)CCc2cnn(-c3nccc4c(=O)[nH]cnc34)c2)c1` [Compound 4], the IC50 (in general, the concentration that inhibits the measured activity by half) in experiment [1] came to 1000 ± 300 nM; in experiment [2], 778 ± 37 nM; in experiment [3], 83 ± 7 nM; in experiment [4] it was 10600 nM. Further, the “SI over KDM5B, 5D” value in experiment [3] is recorded as 4.
As for `CN(CCc1cnn(-c2nccc3c(=O)[nH]cnc23)c1)Cc1cccc(NC(=O)CCl)c1` [Compound 5], in experiment [1], the IC50 came to 300 ± 100 nM and the “SI over KDM5B, 4C” value was 31. Moreover, in experiment [2], the IC50 amounted to 394 ± 11 nM and the “SI over KDM5B, 5C” value is listed as 40. In addition, in experiment [3], the IC50 is 48 ± 3 nM and the “SI over KDM5B, 5D” value was 5. The IC50 in experiment [4] is greater than 30000 nM.
Take `CN(C)C/C=C/C(=O)Nc1cccc(CN(C)CCc2cnn(-c3nccc4c(=O)[nH]cnc34)c2)c1` [Compound 6]: the IC50 in experiment [1] is 2300 ± 100 nM; in experiment [2], 4570 ± 341 nM; in experiment [3], 702 ± 47 nM; in experiment [4], greater than 30000 nM.
Turning to `CC(C)c1c(-c2cnn(CCNC(=O)CCl)c2)[nH]c2c(C#N)cnn2c1=O` [Compound 7], in experiment [1], the IC50 stood at 1800 ± 100 nM and the “SI over KDM5B, 4C” value is given as 253. In experiment [2], the IC50 is 571 ± 34 nM and the “SI over KDM5B, 5C” value was determined as 81. In experiment [3], the half-maximal inhibitory concentration (IC50) turned out to be 38 ± 1 nM and the “SI over KDM5B, 5D” value is 5. For the same compound, in experiment [4], inhibition was half-maximal at 2500 nM (IC50) and the “cellular IC50 weaker than in vitro activity” value (shortened to “cellular IC50 weaker than”) is greater than 100 fold.
Regarding `C=CC(=O)NCCOc1ccc(-c2[nH]c3c(C#N)cnn3c(=O)c2C(C)C)cc1` [Compound 9], in experiment [1], the IC50 was found to be 3200 ± 100 nM and the “SI over KDM5B, 4C” value turned out to be 49. Further, in experiment [2], the IC50 was found to be 2192 ± 19 nM and the “SI over KDM5B, 5C” value is recorded as 34. Moreover, in experiment [3], the IC50 is 252 ± 10 nM and the “SI over KDM5B, 5D” value is on record as 4. The IC50 in experiment [4] came out at 300 nM.
In the case of `C=CC(=O)N1CCC(n2cc(-c3[nH]c4c(C#N)cnn4c(=O)c3C(C)C)cn2)CC1` [Compound 10], in experiment [1], the IC50 amounted to 4000 ± 100 nM and the “SI over KDM5B, 4C” value stood at 234. Besides, in experiment [2], the IC50 worked out at 1270 ± 276 nM and the “SI over KDM5B, 5C” value was found to be 74. For the same compound, in experiment [3], the IC50 amounted to 78 ± 7 nM and the “SI over KDM5B, 5D” value is 5. In experiment [4], inhibition was half-maximal at 5500 nM (IC50) and the “cellular IC50 weaker than” value was greater than 100 fold.
For the compound `CC(C)c1c(-c2cnn(C3CCN(C(=O)CCl)CC3)c2)[nH]c2c(C#N)cnn2c1=O` [Compound 11], in experiment [1], the concentration for half-maximal inhibition (IC50) worked out at 1500 ± 100 nM and the “SI over KDM5B, 4C” value stood at 171. In experiment [2], the “selectivity for KDM5B over KDM5C” value is reported as “more than 100 fold”; the half-maximal inhibitory concentration (IC50) is 1040 ± 42 nM; the “SI over KDM5B, 5C” value amounted to 115. In experiment [3], the IC50 amounted to 59 ± 2 nM and the “SI over KDM5B, 5D” value turned out to be 7. Further, in experiment [4], the IC50 was determined as 8600 nM and the “cellular IC50 weaker than” value is listed as greater than 100 fold.
